What was measured:
[1] = molecular target: Cyclin-dependent kinase 5/CDK5 activator 1 (Homo sapiens) (UniProt Q00535+Q15078); assay: Residual activity of CDK5/p35NCK at 0.1 uM by microplate scintillation counting; type: protein-complex assay
[2] = molecular target: Tyrosine-protein kinase Fyn (Homo sapiens) (UniProt P06241); assay: Residual activity of FYN at 1 uM by microplate scintillation counting
[3] = molecular target: RAC-gamma serine/threonine-protein kinase (Homo sapiens) (UniProt Q9Y243); assay: Residual activity of AKT3 at 0.1 uM by microplate scintillation counting
[4] = molecular target: T1, Ephrin type-B receptor 1 (Homo sapiens) (UniProt P54762); assay: Residual activity of EPHB1 at 0.1 uM by microplate scintillation counting
T1 sequence (whole entry): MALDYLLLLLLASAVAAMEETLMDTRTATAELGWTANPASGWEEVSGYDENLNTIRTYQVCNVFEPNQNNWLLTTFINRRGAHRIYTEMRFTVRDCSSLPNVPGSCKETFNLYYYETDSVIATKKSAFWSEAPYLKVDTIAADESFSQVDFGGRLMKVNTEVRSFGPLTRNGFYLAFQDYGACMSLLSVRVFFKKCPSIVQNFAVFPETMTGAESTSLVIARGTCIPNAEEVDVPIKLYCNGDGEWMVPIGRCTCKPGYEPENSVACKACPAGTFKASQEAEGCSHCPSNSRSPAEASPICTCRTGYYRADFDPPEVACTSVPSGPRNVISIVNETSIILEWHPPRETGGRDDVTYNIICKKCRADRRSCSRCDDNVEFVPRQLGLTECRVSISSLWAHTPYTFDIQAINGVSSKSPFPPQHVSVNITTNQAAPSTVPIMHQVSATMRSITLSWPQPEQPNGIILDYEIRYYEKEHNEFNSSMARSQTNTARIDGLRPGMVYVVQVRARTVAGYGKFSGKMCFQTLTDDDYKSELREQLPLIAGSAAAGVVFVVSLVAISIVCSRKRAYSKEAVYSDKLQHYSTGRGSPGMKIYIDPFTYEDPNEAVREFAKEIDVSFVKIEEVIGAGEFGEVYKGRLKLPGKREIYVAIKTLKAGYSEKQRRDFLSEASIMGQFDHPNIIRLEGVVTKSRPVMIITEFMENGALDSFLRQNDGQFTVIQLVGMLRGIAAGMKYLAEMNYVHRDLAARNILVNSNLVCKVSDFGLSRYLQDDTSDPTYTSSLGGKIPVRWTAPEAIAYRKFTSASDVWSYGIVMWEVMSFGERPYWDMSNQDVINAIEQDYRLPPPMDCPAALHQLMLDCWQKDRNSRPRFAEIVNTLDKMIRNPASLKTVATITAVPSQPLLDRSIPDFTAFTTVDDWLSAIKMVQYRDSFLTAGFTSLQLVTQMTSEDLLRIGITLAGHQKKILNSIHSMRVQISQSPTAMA

[5] = molecular target: T2, Serine/threonine-protein kinase Nek1 (Homo sapiens) (UniProt Q96PY6); assay: Residual activity of NEK1 at 1 uM by microplate scintillation counting
T2 sequence (whole entry): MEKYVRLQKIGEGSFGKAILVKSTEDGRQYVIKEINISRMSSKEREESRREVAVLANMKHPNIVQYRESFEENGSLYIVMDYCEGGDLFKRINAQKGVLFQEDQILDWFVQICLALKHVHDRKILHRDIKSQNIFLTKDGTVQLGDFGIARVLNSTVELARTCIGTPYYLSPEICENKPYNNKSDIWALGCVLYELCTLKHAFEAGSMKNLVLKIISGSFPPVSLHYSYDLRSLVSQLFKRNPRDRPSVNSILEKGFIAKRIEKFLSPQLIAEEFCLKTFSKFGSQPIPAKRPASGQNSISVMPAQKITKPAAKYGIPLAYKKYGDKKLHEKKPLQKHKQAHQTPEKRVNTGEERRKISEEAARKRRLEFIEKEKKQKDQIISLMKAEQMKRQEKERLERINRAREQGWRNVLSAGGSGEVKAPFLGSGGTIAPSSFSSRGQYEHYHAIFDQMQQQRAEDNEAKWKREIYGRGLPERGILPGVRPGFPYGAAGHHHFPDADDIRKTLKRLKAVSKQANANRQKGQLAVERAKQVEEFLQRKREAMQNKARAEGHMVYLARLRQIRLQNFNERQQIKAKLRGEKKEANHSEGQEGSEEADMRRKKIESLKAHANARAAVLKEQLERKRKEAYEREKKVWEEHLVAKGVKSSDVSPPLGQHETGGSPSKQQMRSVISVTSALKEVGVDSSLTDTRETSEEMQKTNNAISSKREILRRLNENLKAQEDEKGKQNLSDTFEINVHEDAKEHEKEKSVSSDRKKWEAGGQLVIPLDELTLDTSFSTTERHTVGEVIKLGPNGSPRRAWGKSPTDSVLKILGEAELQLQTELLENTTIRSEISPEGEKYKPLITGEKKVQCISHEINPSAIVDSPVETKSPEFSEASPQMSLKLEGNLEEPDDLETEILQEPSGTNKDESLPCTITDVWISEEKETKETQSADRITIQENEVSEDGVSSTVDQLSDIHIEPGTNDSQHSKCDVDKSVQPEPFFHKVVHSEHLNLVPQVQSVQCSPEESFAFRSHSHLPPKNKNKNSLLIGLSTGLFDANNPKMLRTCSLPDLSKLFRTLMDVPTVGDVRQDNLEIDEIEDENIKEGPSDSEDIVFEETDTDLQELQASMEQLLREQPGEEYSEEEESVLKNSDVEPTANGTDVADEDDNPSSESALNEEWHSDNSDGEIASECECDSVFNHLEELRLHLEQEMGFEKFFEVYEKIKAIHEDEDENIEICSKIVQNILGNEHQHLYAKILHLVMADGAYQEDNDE

[6] = molecular target: Leukocyte tyrosine kinase receptor (Homo sapiens) (UniProt P29376); assay: Residual activity of LTK at 0.1 uM by microplate scintillation counting
[7] = molecular target: Serine/threonine-protein kinase Chk2 (Homo sapiens) (UniProt O96017); assay: Residual activity of CHK2 at 1 uM by microplate scintillation counting
Sequence of Serine/threonine-protein kinase Chk2 (Homo sapiens) (O96017 whole entry): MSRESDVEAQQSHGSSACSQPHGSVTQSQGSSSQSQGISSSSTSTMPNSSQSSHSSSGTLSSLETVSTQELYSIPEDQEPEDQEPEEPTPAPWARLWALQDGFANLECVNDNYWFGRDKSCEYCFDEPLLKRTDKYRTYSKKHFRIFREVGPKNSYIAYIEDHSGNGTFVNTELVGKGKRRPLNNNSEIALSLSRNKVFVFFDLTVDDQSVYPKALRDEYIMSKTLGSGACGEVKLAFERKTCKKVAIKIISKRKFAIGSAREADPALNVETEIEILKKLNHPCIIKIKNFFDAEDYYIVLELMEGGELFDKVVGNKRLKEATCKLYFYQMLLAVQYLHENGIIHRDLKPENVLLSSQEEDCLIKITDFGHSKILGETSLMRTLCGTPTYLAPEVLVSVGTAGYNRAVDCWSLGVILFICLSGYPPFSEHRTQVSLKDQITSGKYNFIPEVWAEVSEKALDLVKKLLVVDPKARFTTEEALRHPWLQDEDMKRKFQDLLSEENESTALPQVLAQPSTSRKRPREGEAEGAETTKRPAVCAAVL

Sequence of Tyrosine-protein kinase Fyn (Homo sapiens) (P06241 2-537 limits assumed): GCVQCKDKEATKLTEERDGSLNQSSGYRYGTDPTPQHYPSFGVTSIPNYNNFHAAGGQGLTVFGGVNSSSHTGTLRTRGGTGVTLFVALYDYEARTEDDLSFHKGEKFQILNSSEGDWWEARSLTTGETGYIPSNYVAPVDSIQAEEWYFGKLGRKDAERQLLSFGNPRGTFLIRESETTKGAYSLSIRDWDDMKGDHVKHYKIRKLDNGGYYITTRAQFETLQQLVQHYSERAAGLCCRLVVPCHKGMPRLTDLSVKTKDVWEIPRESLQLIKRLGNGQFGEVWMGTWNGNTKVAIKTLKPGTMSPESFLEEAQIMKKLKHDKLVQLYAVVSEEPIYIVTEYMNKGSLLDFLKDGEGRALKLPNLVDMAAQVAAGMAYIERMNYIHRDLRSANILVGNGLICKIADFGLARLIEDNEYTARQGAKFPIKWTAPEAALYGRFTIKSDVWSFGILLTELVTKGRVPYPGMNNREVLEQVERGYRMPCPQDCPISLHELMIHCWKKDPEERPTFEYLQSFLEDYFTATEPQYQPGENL
Sequence of RAC-gamma serine/threonine-protein kinase (Homo sapiens) (Q9Y243 whole entry): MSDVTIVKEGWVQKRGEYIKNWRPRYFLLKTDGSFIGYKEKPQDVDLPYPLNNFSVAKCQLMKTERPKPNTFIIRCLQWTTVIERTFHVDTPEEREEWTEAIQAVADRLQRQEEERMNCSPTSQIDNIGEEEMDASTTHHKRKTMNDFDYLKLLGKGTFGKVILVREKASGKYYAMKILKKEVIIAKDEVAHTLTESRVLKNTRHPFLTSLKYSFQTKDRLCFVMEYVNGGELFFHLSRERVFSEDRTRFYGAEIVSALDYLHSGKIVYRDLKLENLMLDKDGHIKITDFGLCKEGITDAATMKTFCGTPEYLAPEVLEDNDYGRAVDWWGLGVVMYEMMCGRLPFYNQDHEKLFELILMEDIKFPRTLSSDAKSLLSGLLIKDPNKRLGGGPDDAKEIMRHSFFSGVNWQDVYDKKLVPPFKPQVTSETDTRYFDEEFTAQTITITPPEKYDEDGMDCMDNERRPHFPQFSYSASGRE
Sequence of Leukocyte tyrosine kinase receptor (Homo sapiens) (P29376 whole entry): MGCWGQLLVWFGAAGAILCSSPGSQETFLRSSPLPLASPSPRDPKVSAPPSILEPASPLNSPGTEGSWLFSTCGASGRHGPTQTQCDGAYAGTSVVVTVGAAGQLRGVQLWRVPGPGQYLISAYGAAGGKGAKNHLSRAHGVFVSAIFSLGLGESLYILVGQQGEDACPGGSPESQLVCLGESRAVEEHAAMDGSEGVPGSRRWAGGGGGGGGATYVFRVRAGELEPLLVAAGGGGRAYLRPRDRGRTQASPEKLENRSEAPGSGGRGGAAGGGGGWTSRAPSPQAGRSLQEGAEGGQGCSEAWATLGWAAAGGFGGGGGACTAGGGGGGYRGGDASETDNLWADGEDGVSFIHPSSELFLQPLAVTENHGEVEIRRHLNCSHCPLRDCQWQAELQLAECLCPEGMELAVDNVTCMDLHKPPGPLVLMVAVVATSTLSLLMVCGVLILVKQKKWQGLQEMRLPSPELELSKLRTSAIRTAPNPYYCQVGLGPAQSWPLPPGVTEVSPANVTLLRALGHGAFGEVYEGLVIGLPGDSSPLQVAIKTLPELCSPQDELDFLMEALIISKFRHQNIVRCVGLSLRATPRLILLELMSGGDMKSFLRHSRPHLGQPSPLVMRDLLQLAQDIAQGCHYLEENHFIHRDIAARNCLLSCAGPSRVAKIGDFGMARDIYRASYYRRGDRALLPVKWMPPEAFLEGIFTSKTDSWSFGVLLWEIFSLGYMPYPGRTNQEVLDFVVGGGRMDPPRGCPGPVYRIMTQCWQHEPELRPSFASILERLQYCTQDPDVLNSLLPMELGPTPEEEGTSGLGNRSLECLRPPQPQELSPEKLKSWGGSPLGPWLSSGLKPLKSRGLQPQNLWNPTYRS
Sequence of Cyclin-dependent kinase 5/CDK5 activator 1 (Homo sapiens) (Q00535 whole entry): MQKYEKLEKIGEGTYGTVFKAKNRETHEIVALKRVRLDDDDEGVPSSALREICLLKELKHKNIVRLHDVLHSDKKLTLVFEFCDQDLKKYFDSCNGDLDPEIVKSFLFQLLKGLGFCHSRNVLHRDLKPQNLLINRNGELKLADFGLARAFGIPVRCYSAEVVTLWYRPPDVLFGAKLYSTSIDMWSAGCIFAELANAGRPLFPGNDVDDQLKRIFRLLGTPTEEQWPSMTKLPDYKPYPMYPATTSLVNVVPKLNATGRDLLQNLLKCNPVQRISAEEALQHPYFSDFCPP
Sequence of Cyclin-dependent kinase 5/CDK5 activator 1 (Homo sapiens) (Q15078 99-307 partner limits assumed): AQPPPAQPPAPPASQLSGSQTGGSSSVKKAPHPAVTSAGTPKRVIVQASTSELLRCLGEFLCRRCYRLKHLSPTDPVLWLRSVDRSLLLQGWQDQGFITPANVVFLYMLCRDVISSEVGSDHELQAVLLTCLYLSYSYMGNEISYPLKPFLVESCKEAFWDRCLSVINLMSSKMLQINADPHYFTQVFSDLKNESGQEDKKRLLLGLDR

| SMILES | residual activity [1] [%] | residual activity [2] [%] | residual activity [3] [%] | residual activity [4] [%] | residual activity [5] [%] | residual activity [6] [%] | residual activity [7] [%] |
| --- | --- | --- | --- | --- | --- | --- | --- |
| COc1cc2c(Oc3ccc(-c4nc5ccccc5s4)cc3)ncnc2cc1OCCCN1CCN(C)CC1 | 93 | 105 | 96 | 118 | 85 | 82 | 54 |
| COc1cc2c(Oc3ccc(-c4nc5ccccc5s4)cc3F)ncnc2cc1OCCCN1CCN(C)CC1 | 83 | 106 | 107 | 123 | 94 | 101 | 51 |
| COc1cc2c(Oc3ccc(-c4nc5ccccc5s4)cc3)ncnc2cc1OCCCN1CCCC1 | 94 | 106 | 100 | 99 | 85 | 99 | 75 |

From ChEMBL document CHEMBL1152560, “Substituted 2-arylbenzothiazoles as kinase inhibitors: hit-to-lead optimization” (Bioorg Med Chem, 2009)
